# Where two headings read alike, the source gives them in different places.
# Legend:
# [1] = system: primary human hepatocytes (PHH); assay: Cytotoxicity (cellular ATP, CellTiter-Glo) in 2D plated primary human hepatocytes, 48 h treatment; type: cell-based; settings: Hepatocyte, read-out: Geomean IC50;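 note: 384-well plates, luminescence read-out, normalized to vehicle wells with 1% DMSO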
# Procedure: Cryopreserved PHH (lot IZT) were thawed in InVitroGro HT™ thawing media at 37 °C, pelleted, and resuspended. Viable hepatocytes were counted by Trypan blue exclusion and plated in black-walled, BioCoat™ collagen 384-well plates at 13,000 cells/well in InVitroGro CP™ plating media supplemented with 1% Torpedo™ Antibiotic Mix and 5% fetal bovine serum and incubated overnight for 18 h. Cells were then treated with compounds for 48 h diluted in InVitroGro HI™ incubation media containing 1% Torpedo Antibiotic Mix, 10% fetal bovine serum, and 1% DMSO. […] Luminescence was determined on an EnVision™ Muliplate Reader (PerkinElmer, Waltham, MA, USA), and data were normalized to vehicle (1% DMSO) control wells.
# [2] = system: 3D human liver microtissues (hLiMT); assay: Cytotoxicity (cellular ATP, CellTiter-Glo 2.0) in 3D human liver microtissues, 14 day repeat-dose treatment; settings: for IC50: Homo sapiens, Hepatocyte, 336 h, read-out: Geomean IC50 [µM]
# [3] = cited from earlier work; for P/N (DILI positive / DILI negative): P = DILI severity categories 1, 2 and 3, N = categories 4 and 5; for DILI category: clinical, from literature and product labels
# [4] = cited from earlier work
# [5] = Clinical DILI severity categorization and DILI pattern; settings: P = DILI severity categories 1, 2 and 3; N = categories 4 and 5
# [6] = system: 3D human liver microtissues (hLiMT); assay: Cytotoxicity (cellular ATP) in 3D human liver microtissues, 5-6 days treatment; type: cell-based; settings: Homo sapiens; hLiMT, 5/6 days, ATP content; read-out: IC50 SHORT;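 note: Hanging-drop spheroids, seven-point dilution series, re-dosed on day 3, CellTiter-Glo 2.0 luminescence, normalized to 0.5 or 1% DMSO vehicle controls on the same plate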
# [7] = ref Chen et al 2016 / Chen et al 2011; cited from earlier work
# [8] = Table 1, ref Garside et al. (2014)
# [9] = clinical DILI severity category, 1-5
# [10] = human Cmax total, used for IC50/Cmax
# [11] = human total plasma Cmax, ref literature values
# [12] = 2D primary human hepatocytes (lot IZT), 48 h treatment, total cellular ATP content
# [13] = table S-4, ref Garside et al. 2014
Structure (SMILES),"IC50 ([1]; Homo sapiens, 48 h) [µM]",IC50 [2] [µM],P/N (DILI positive / DILI negative) [3],"DILI severity category [3, 8]","DILI severity category [3, 9]",DILI category ([3]; ref Garside et al. 2014),"Cmax [4, 10] [nM]","Cmax [4, 11] [nM]",P/N (DILI positive / DILI negative) [5],"IC50 [1, 12] [µM]",IC50 [6] [µM],FDA DILI Classification DILI severity score [7],LTKB DILI classification [7],"DILI severity category [3, 13]",change of IC50 with prolonged exposure ([2]; hLiMT 14 days versus 5-6 days),"DILI severity category ([3]; table S-5, ref Garside et al. 2014) [No DILI]"
[H]/N=C(/N)c1ccc(NCc2nc3cc(C(=O)N(CCC(=O)O)c4ccccn4)ccc3n2C)cc1 [Dabigatran],> 25,> 50,N,4: Enzyme elevations in clinic (N = 16),4. Enzyme Elevations in Clinic,4. Enzyme Elevations in Clinic,370,370,N,,,,,,,
CN[C@@H]1[C@H](O)[C@H](NC)[C@H]2O[C@@]3(O)C(=O)C[C@@H](C)O[C@H]3O[C@@H]2[C@H]1O [Spectinomycin],,> 100,,3: Low clinical DILI concern (N = 23),3. Low Clinical DILI Concern,3. Low Clinical DILI Concern,323000,323000,,> 100,100,3,Ambiguous DILI concern,3,,
CC(C)C(=O)Nc1ccc([N+](=O)[O-])c(C(F)(F)F)c1 [Flutamide],,25.7,,1: Severe clinical DILI (N = 23),1. Severe Clinical DILI,1. Severe Clinical DILI,5400,5430,,73,12.5,8,most DILI concern,1,higher IC50 value,
Fc1ccc([C@@H]2CCNC[C@H]2COc2ccc3c(c2)OCO3)cc1 [Paroxetine],,12,,2: High clinical DILI concern (N = 23),2. High Clinical DILI Concern,2. High Clinical DILI Concern,200,200,,15.3,21.3,8,less DILI concern,2,,
Cc1ccccc1C(OCCN(C)C)c1ccccc1 (stereo not shown) [Orphenadrine],,,N,5: No DILI (N = 25),5. No DILI,5. No DILI,740,740,N,,,0,no DILI concern,,,5.
CN(C)C(=O)Oc1cccc([N+](C)(C)C)c1 [Neostigmine],,> 10,N,5: No DILI (N = 25),5. No DILI,5. No DILI,45,44.8,N,> 10,,,,,,
CC(=O)N1CCN(c2ccc(OCC3COC(Cn4ccnc4)(c4ccc(Cl)cc4Cl)O3)cc2)CC1 (stereo not shown) [Ketoconazole],,4.6,,1: Severe clinical DILI (N = 23),1. Severe Clinical DILI,1. Severe Clinical DILI,11300,11300,,47.2,8.5,8,most DILI concern,1,,
CC(C)(C)NCC(O)c1ccc(O)c(CO)c1 (stereo not shown) [Albuterol],,,N,5: No DILI (N = 25),5. No DILI,5. No DILI,80,80,N,,,,no DILI concern,,,
CN(Cc1cnc2nc(N)nc(N)c2n1)c1ccc(C(=O)N[C@@H](CCC(=O)O)C(=O)O)cc1 [Methotrexate],,> 100,,1: Severe clinical DILI (N = 23),1. Severe Clinical DILI,1. Severe Clinical DILI,5000,5000,,> 100,100,3,most DILI concern,1,,
CN(C)C(=N)N=C(N)N [Metformin],,> 100,,3: Low clinical DILI concern (N = 23),3. Low Clinical DILI Concern,3. Low Clinical DILI Concern,7740,7740,,> 100,100,0,less DILI concern,3,,
